The source of these data is PubChem BioAssay AID1996.

≈ marks a conversion by molar mass, not a printed value. Bounds are passed on as bounds.

A word on the kinetic solubility: it is solubility judged after dilution from a stock solution rather than from solid.

For the data set the following is noted: buffer; pH 7.4; 200.0 µM.
The compound `Cc1noc(C)c1COc1ncnc2ccccc12` returned a solubility (kinetic) of more than 0.0383 mg/mL. The value for `CNc1oc(-c2ccccc2)nc1S(=O)(=O)c1ccc(C)cc1` was 0.0053 mg/mL (≈ 16.1 µM); that for `O=C1CCCC2=C1C(c1ccc(O)c(O)c1)Nc1ccc3ccccc3c12` (stereo unspecified) was 0.0473 mg/mL (≈ 132 µM); that for `Cc1cccc(NC(=O)c2cccc(N3C(=O)C4C5C=CC(C6CC56)C4C3=O)c2)c1` (stereo unspecified) was 0.0015 mg/mL (≈ 3.76 µM). Regarding `N#CC1(NC(=O)CN2CCc3ccccc3C2)CCCC1`, the kinetic solubility is more than 0.0425 mg/mL. Consider `Cc1cc(N2CCN(C(=O)/C=C/C(=O)O)CC2)c2ccccc2n1`, for which the kinetic solubility was 0.0486 mg/mL (≈ 149 µM). `CCOc1ccccc1C(=O)NCC(=O)O`: the kinetic solubility was more than 0.0335 mg/mL. Compound `O=C1OC(c2ccc(Br)cc2)=N/C1=C\c1ccco1` displayed a solubility (kinetic) of 0.0024 mg/mL (≈ 7.54 µM).

Take `CCN1CCCC1CNC(=O)c1[nH]c2ccc(OC)cc2c1C` (stereo unspecified): the solubility (kinetic) was more than 0.0473 mg/mL. Compound `COc1cc(-n2c(C)nc3cc(C(=O)O)ccc32)cc(OC)c1OC` registered a kinetic solubility of more than 0.0514 mg/mL. The value for `CCOCCOC(=O)NCCCCCCNC(=O)OCCOCC` was 0.0382 mg/mL (≈ 110 µM). Regarding `Cc1ccc(Sc2nc(C)c([N+](=O)[O-])c(C)c2C#N)cc1`, the solubility (kinetic) was 0.0007 mg/mL (≈ 2.34 µM). As for `O=C(Nc1nc2ccc(F)cc2s1)c1cccs1`, the solubility (kinetic) is 0.0011 mg/mL (≈ 3.95 µM).

Compound `O=C(Nc1ccccc1)N1CCCN(c2c(Cl)cncc2Cl)CC1` came in with a solubility (kinetic) of 0.0109 mg/mL (≈ 29.8 µM). In turn, `CC1(C(=O)O)CCC(C(=O)Nc2cccc(F)c2)C1(C)C` (stereo unspecified) gave a solubility (kinetic) of more than 0.044 mg/mL. The compound `CSc1ccc(Cl)c(C(=O)N2CCOc3ccccc32)c1` registered a solubility (kinetic) of 0.0135 mg/mL (≈ 42.2 µM).

`O=C(O)C1CC=CCC1C(=O)NCCCCc1ccccc1` (stereo unspecified): the kinetic solubility is more than 0.0452 mg/mL. `O=C(Nc1cccc(S(=O)(=O)NCc2ccco2)c1)c1cccc(Cl)c1`: the solubility (kinetic) amounted to 0.0025 mg/mL (≈ 6.4 µM).

Regarding `COC(CSc1ncnc2c1oc1nc3c(cc12)COC(C)(C)C3)OC`, the kinetic solubility came to 0.0546 mg/mL (≈ 145 µM). Under `CCOc1ccc(CCNC(=O)CCC(=O)c2cccs2)cc1OCC` stands more than 0.0563 mg/mL; under `CC1CCC(NC(=O)COC(=O)c2cccnc2Cl)CC1` (stereo unspecified), more than 0.0466 mg/mL. Compound `CC(C)c1nc(SCC(=O)c2ccc(F)cc2)c2ccccc2n1` yielded a kinetic solubility of 0.0017 mg/mL (≈ 4.99 µM). `COc1ccc(NC(=O)C(=S)NC2CCCCC2)cc1`: the solubility (kinetic) was less than 0.0003 mg/mL. The value for `COc1ccc(Nc2ncnc3ccc([N+](=O)[O-])cc23)c(OC)c1` was 0.0105 mg/mL (≈ 32.2 µM); that for `Cc1nc(Sc2ccc(Cl)cc2)c(C#N)c(C)c1[N+](=O)[O-]` was less than 0.0002 mg/mL.

`CCc1ccccc1NC(=S)N1CCCCCC1`: the solubility (kinetic) was more than 0.0394 mg/mL. The value for `CCOc1ccc2c(c1)C(=O)C(=O)N2CC1COc2ccccc2O1` (stereo unspecified) was 0.0012 mg/mL (≈ 3.54 µM). The value for `O=C(NC1CCCCCC1)C1CCN(S(=O)(=O)c2cnc[nH]2)CC1` was 0.0507 mg/mL (≈ 143 µM); that for `CC(C)C(=O)N1CCC(Cc2ccccc2)CC1` was 0.0335 mg/mL (≈ 137 µM); that for `Cc1cc(O)cc(=O)n1C` was more than 0.0209 mg/mL. `O=C(Cc1cccc(Cl)c1)Nc1ccc(Br)cc1` came in with a kinetic solubility of 0.0029 mg/mL (≈ 8.93 µM).

Compound `CC(=O)C(/C=N/c1ncc(C(F)(F)F)cc1Cl)=C(\C)O` registered a kinetic solubility of 0.0013 mg/mL (≈ 4.24 µM).

`O=C(CC(SCCO)c1ccc([N+](=O)[O-])cc1)c1ccco1` (stereo unspecified) yielded a solubility (kinetic) of 0.0037 mg/mL (≈ 11.5 µM). Consider `S=c1[nH]nc(CSCCOc2ccc(Cl)cc2Cl)o1`, for which the kinetic solubility is more than 0.0506 mg/mL. Consider `O=C(NCc1cccnc1)c1ccc(NS(=O)(=O)c2cccc([N+](=O)[O-])c2)cc1`, for which the solubility (kinetic) was more than 0.0619 mg/mL.

For the compound `Cc1ccccc1N1CCN(Cc2ccc([N+](=O)[O-])o2)CC1`, the kinetic solubility was 0.0343 mg/mL (≈ 114 µM). In turn, `O=C(NOCc1ccccc1)c1ccc([N+](=O)[O-])cc1` gave a solubility (kinetic) of more than 0.0408 mg/mL. For the compound `O=C(CCc1nc(-c2ccccc2Cl)no1)NCc1ccco1`, the solubility (kinetic) was more than 0.0498 mg/mL. The value for `O=S(=O)(Nc1ccncc1Cl)c1ccc2ccccc2c1` was 0.0423 mg/mL (≈ 133 µM); that for `CN(C)c1ccc(S(=O)(=O)N2CCC(Cc3ccccc3)CC2)cn1` was 0.002 mg/mL (≈ 5.56 µM); that for `COc1ccccc1C1CCN(C(=O)c2ccc(Cl)cc2)CC1` was 0.017 mg/mL (≈ 51.5 µM). In turn, `COc1ccccc1CC(=O)N1CCN(c2ccccc2)CC1` returned a kinetic solubility of more than 0.0466 mg/mL. Take `COc1ccc(NC(=O)C2=CC=CN3CCS(=O)(=O)N=C23)c(OC)c1`: the solubility (kinetic) is 0.0138 mg/mL (≈ 38 µM). For `CCC1CN(C(=O)NCc2ccc(C)cc2)c2cc(C)ccc2O1` (stereo unspecified), the solubility (kinetic) was determined as 0.0005 mg/mL (≈ 1.54 µM).

Consider `Nn1c(C2CCCCC2)nc2ccccc2c1=O`, for which the solubility (kinetic) was more than 0.0365 mg/mL. Take `CCC(CC)NC(=O)C1CC(=O)N(CCc2ccc(F)cc2)C1` (stereo unspecified): the kinetic solubility was more than 0.0481 mg/mL. As to `CNC(=O)COc1ccc(Nc2nnc(C)c3ccccc23)cc1.Cl`, the kinetic solubility was more than 0.0538 mg/mL. The value for `Cc1cc2oc(=O)cc(CN3CCOCC3)c2cc1O` was more than 0.0413 mg/mL; that for `Cc1ccc(NC(=O)C2CCCN2C(=O)OCc2ccccc2)cc1C` (stereo unspecified) was 0.0115 mg/mL (≈ 32.6 µM); that for `CN=C1S/C(=C\c2ccc(SC)cc2)C(=O)N1C` was 0.0014 mg/mL (≈ 5.03 µM).

As to `CCN(CC)C(=O)CN1C(=O)c2cccc3cccc1c23`, the kinetic solubility is more than 0.0424 mg/mL.
